Reference: US20250003011A1, “SAMPLE PREPARATION METHODS USING MODIFIED BASES FOR RAPID IDENTIFICATION AND SEQUENCING” (priority 2023, published 2025)

Columns and labels:
[1] = biological target: T1, DeepVent DNA polymerase (Pyrococcus sp., UniProt Q51334, DEL493-1029); assay: Elongation (fill-in) assay on 200-mer template with modified uridine triphosphates; type: biochemical; conditions: modified nucleotide replaces dTTP at 100%; 72° C., 30 min
T1 construct: purchased
Method: (§1) A synthetic template of 200 bases was used to determine the capacity of Deep Vent and Manta DNA polymerase to integrate modified uridine triphosphate. The synthesis was initiated from a 20 bases complementary oligonucleotide and various conditions were tested. In lanes 1 and 6, all triphosphate nucleotide except dTTP were added in the reaction mix according to the manufacturer recommendation (negative control) to determine if the polymerase is stopped at positions where it needs to integrate a thymidine. In lane 2, dTTP was added to the reaction mix as the positive control where full length construct should be obtained. In lanes 3 and 7, 4 and 8 and 5 and 9, IdU, FdU and CldU were added to the reaction mix respectively to replace at 100% the dTTP. […] This is not the case for the Manta DNA polymerase as the only product observed is where the polymerase should have integrated a thymidine.
(§2) In order to identify the proper DNA polymerase that can utilise modified uridine triphosphate, we performed an elongation assay with different DNA polymerases and various combination of nucleotide mixes, using a 22-mer primer (PS2508, SEQ ID NO: 1) annealed to a 200-mer template (PS2509, SEQ ID NO:2). As the template contains a lot of instances of adenines, there are multiple positions where the polymerase must be able to incorporate uridine to be able to produce full length fill in reaction.
(§3) On the other hand, when dTTP or dUTP was replaced with a modified dUTP, a full-length reaction product was detected for both Manta™ and DeepVent DNA polymerases.
(§4) The conditions for the fill in reaction were as follow: dATP, dGTP, dCTP and Iodo dUTP were prepared in a mix at 500 μM each and used at a final concentration of 100 μM final; 1 μl of Manta™ or DeepVent polymerase were used on 10 pmoles of the 200-mer (PS2509) with the 22-mer primer (PS2508) pre-annealed to initiate the fill-in.
(§5) The incubation was done for 30 min at 65° C. for the Manta or 72° C. for the DeepVent, in a MiniAmp thermalCycler (Applied Biosystems) with lid at 105° C. to prevent evaporation.

[2] = biological target: T2, Manta DNA polymerase (Geobacillus stearothermophilus, UniProt P52026); assay: as above; type: biochemical; conditions: modified nucleotide replaces dTTP at 100%; 65° C., 30 min
T2 construct: Bst DNA Polymerase, Large Fragment (e.g., Manta®); purchased
T2 sequence (P52026 289-876 limits assumed): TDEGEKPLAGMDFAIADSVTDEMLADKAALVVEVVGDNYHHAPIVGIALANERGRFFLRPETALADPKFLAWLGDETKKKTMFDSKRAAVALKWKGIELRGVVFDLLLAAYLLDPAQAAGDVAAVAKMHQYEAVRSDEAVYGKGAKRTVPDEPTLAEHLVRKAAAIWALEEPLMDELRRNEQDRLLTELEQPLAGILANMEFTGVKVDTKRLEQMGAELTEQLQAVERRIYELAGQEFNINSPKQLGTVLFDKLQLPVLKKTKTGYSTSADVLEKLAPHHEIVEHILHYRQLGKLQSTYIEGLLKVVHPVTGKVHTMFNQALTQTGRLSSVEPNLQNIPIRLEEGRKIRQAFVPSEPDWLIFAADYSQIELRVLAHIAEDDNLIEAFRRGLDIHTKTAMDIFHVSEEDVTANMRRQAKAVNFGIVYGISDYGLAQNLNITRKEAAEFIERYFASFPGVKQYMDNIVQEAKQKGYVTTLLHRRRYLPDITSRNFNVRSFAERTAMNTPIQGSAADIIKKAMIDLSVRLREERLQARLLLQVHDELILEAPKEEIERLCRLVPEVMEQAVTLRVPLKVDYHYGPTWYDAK
Method: as §1, §2, §3, §4, §5

[3] = biological target: T3, MANTA polymerase (Geobacillus stearothermophilus, UniProt P52026); assay: Incorporation of two modified nucleotides in one fill-in reaction, distribution detected by antibodies on hairpins; type: biochemical; set-up: Bst DNA Polymerase, Large Fragment (e.g., Manta®); purchased; conditions: iodo-dUTP 5 μM and pseudo-dUTP 95 μM replacing dTTP; anti-iodouridine and anti-pseudouridine antibodies
T3 sequence (P52026 289-876 limits assumed): T2 sequence (P52026 289-876 limits assumed)
Source text: After synthesis, the hairpin was assembled and assessed with both anti-iodouridine antibody and anti-pseudouridine antibody.
FIG. 4B: For each molecule, we counted the number of positions detected by either the anti-IdU or anti-pseudouridine over the expected total number of positions for this sequence. We then plotted the distribution of each modification for all the functional molecules.
One of the 50 long oligonucleotides described in Example 3 was used as a template to incorporate two different modified nucleotides at the same time. Both iodo-dUTP as well as pseudo-dUTP were included in the nucleotide mix (at 5 μM and 95 μM respectively) during the replication step to completely replace the natural base dTTP. After synthesis of the complementary strand, the hairpin was assembled and assessed with both anti-iodouridine antibody (clone OTI2F8 from Abcam) and anti-pseudouridine antibody (Cat. No. C15200236, Diagenode) (FIG. 4A).
The distribution of each modified base in the hairpin was determined for each modification (FIG. 4B).

[4] = biological target: T3, MANTA polymerase; assay: Measurement of the KD of modified uridine triphosphates, single-adenine template, FITC primer, PAGE; conditions: 65° C., 2 minutes; 100 μM dATP, dCTP, dGTP; no dTTP
Method: The reaction was supplemented with dATP, dCTP and dGTP as well as the uridine triphosphate tested (no dTTP was added to the reaction).
The KD is defined as the concentration of the modified dUTP required to produce 50% of fill in reaction. […] We then produced a second, simpler template comprising only one adenine in the template followed by 15 random bases excluding adenine (PS2972, SEQ ID NO:3). The template was designed such that the 3′ end of the complementary oligonucleotide tagged with FITC (PS1289, SEQ ID NO:4) ends at the base just before the adenine in the 32-base oligonucleotide. After annealing of these two oligonucleotides, there is thus only one A position where modified dUTP could be inserted (see FIG. 2A).
It was expected that if dCTP, dATP and dGTP were present in the reaction mix along with one of the modified uridine triphosphates, if the modified uridine was integrated by the polymerase, 16 bases would be added, thereby yielding a 32 base-long oligonucleotide tagged with FITC. […]
Polymerisation reactions were prepared with the Manta polymerase. […] Fluorescence of the reaction products were then quantified with ImageJ (National Institutes of Health).
For each modified uridine triphosphate, the ratio of fully extended product over the total amount of FITC-labelled oligonucleotide was calculated and plotted on a graph as a function of the concentration. […]

T1 sequence (Q51334 other isoform, or with tags, fused parts or gaps DEL493-1029): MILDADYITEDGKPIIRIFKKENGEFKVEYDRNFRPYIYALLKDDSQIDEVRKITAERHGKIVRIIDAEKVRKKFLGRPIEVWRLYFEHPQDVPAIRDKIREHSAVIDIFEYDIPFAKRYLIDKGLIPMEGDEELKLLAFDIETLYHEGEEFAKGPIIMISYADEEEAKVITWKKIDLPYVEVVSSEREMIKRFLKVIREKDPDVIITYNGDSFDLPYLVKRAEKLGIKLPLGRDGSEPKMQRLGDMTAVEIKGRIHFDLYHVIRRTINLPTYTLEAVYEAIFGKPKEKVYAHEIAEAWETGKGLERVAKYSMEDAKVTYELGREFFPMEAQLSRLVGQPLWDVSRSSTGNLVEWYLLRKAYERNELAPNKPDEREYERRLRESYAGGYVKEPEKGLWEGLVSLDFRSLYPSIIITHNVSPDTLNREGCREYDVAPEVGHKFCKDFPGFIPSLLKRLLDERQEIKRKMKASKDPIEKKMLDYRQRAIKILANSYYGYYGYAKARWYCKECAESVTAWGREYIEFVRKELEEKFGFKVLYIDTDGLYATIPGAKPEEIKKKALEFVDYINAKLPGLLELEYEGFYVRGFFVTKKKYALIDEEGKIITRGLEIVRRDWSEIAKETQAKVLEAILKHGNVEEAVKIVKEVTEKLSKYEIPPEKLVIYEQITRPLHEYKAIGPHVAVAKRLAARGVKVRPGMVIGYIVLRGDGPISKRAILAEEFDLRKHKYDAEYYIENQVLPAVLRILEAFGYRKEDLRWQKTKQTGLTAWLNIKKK

Row | Compound | full length product in polymerisation reaction [1] | full length product in polymerisation reaction [2] | distribution of each modified base in the final hairpin [3] | KD (concentration of the modified dUTP required to produce 50% of fill in reaction) compared with dTTP [4]
1 | O=c1[nH]c(=O)n([C@H]2C[C@H](O)[C@@H](COP(=O)(O)OP(=O)(O)OP(=O)(O)O)O2)cc1Cl [CldU, 5-chloro-2′-deoxyuridine-5′-triphosphate] | full length products were obtained | full length products were obtained | – | –
2 | pseudouridine-5′-triphosphate | – | – | equal distribution | almost twice the KD of dTTP
3 | O=c1[nH]c(=O)n([C@H]2C[C@H](O)[C@@H](COP(=O)(O)OP(=O)(O)OP(=O)(O)O)O2)cc1F [FdU, 5-fluoro-2′-deoxyuridine-5′-triphosphate] | full length products were obtained | full length products were obtained | – | –
